We go through 21 compounds from ChEMBL document CHEMBL1129178, “Thiol inhibitors of endothelin-converting enzyme” (Bioorg Med Chem Lett, 1996).

SMILES strings stand for the structures.

For experiment [1], the target named is T1, Endothelin-converting enzyme 1 (Rattus norvegicus, UniProt P42893).
T1 sequence (P42893 whole entry): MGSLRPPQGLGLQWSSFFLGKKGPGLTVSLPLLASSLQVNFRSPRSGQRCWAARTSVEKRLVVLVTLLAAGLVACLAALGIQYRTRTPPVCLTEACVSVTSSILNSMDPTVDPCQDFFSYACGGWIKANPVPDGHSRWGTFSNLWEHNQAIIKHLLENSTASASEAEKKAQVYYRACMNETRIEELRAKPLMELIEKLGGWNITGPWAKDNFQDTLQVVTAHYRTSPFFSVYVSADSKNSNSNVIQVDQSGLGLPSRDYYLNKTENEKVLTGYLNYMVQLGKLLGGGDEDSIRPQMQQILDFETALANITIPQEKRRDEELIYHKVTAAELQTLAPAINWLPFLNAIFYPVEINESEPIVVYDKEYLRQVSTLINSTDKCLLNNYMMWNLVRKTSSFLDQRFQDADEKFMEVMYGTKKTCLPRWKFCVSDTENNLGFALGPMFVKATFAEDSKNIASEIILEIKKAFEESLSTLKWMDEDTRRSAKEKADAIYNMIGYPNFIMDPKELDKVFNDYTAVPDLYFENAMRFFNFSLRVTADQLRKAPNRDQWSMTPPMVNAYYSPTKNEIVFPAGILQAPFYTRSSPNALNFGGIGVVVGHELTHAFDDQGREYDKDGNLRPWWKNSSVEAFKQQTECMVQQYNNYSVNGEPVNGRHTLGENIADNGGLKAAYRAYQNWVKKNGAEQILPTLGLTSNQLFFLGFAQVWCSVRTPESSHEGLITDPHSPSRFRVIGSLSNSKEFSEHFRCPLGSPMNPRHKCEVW
The experiment can be described thus: In vitro inhibition of Endothelin-converting enzyme 1 from rat lungs.

In experiment [2] the target is T2, Endothelin-converting enzyme 1 (Rattus norvegicus) (UniProt P42893).
T2 sequence (whole entry): T1 sequence (P42893 whole entry)
The experiment can be described thus: In vitro inhibition of cleavage of [3H]propionyl-big ET-1(19-35) by Endothelin-converting enzyme 1 from rat lungs at 10000 nM.

The compound `COc1ccc(-c2ccc(C[C@H](NC(=O)[C@@H](CS)Cc3ccccc3)C(=O)O)cc2)cc1` yielded an IC50 in experiment [1] of 800 nM. On the same count and under the same terms, the value for `O=C(N[C@@H](Cc1c[nH]c2ccccc12)C(=O)O)C(CS)Cc1ccc(OCc2ccccc2)cc1` (stereo partly specified) was 800 nM; that for `O=C(N[C@@H](Cc1c[nH]c2ccccc12)C(=O)O)C(CS)Cc1cccc(-c2ccccc2)c1` (stereo partly specified) was 40 nM. Same read-out and setting: for `O=C(N[C@@H](Cc1c[nH]c2ccccc12)C(=O)O)[C@H](S)Cc1ccccc1` the value was 400 nM; for `O=C(N[C@@H](Cc1ccccc1)C(=O)O)[C@@H](CS)Cc1ccccc1`, 1200 nM. The same measure, in the same setting: for `O=C(N[C@@H](Cc1c[nH]c2ccccc12)C(=O)O)C(CS)Cc1cc2c(cc1Cl)OCO2` (stereo partly specified) the value was 400 nM; for `O=C(N[C@@H](Cc1ccc(O)cc1)C(=O)O)[C@@H](CS)Cc1ccccc1`, 2800 nM.

For the compound `COC(=O)[C@H](Cc1c[nH]c2ccccc12)NC(=O)[C@H](CS)Cc1ccccc1`, the IC50 in experiment [1] stood at 3500 nM.

In experiment [1], `O=C(N[C@@H](Cc1c[nH]c2ccccc12)C(=O)O)[C@@H](CS)Cc1ccccc1` displayed an IC50 of 180 nM.

`O=C(N[C@@H](Cc1ccc(OCc2ccccc2)cc1)C(=O)O)[C@@H](CS)Cc1ccccc1` returned an IC50 in experiment [1] of 700 nM. On the same count and under the same terms, the value for `O=C(N[C@@H](Cc1ccc(-c2ccc3ccccc3c2)cc1)C(=O)O)[C@@H](CS)Cc1ccccc1` was 300 nM; that for `O=C(N[C@@H](Cc1c[nH]c2ccccc12)C(=O)O)C(CS)Cc1ccc(-c2ccccc2)cc1` (stereo partly specified) was 40 nM; that for `O=C(N[C@@H](Cc1ccc(-c2ccccc2)cc1)C(=O)O)[C@@H](CS)Cc1ccccc1` was 150 nM.

`O=C(N[C@@H](Cc1c[nH]c2ccccc12)C(=O)O)[C@H](CS)Cc1ccccc1`: in experiment [1], the 50% inhibitory concentration (IC50) was 500 nM. The same measure, in the same setting: for `COC(=O)[C@H](Cc1c[nH]c2ccccc12)NC(=O)[C@H](S)Cc1ccccc1` the value was 2200 nM; for `O=C(N[C@@H](Cc1ccc(-c2cccs2)cc1)C(=O)O)[C@@H](CS)Cc1ccccc1`, 55 nM; for `O=C(N[C@@H](Cc1ccc(-c2cccs2)cc1)C(=O)O)C(CS)Cc1cccc(Br)c1` (stereo partly specified), 80 nM. The same measure, in the same setting: for `COC(=O)[C@H](Cc1c[nH]c2ccccc12)NC(=O)[C@@H](CS)Cc1ccccc1` the value was 1800 nM. Same read-out and setting: the value for `O=C(N[C@@H](Cc1c[nH]c2ccccc12)C(=O)O)C(CS)Cc1ccccc1` (stereo partly specified) was 340 nM. Regarding `O=C(N[C@@H](Cc1c[nH]c2ccccc12)C(=O)O)C(CS)Cc1ccc(Br)cc1` (stereo partly specified), the IC50 in experiment [1] is 25 nM. Turning to `O=C(O)[C@H](Cc1c[nH]c2ccccc12)NC(=O)[C@@H](S)Cc1ccccc1`, the inhibition in experiment [2] turned out to be 65%.

What is called IC50 is the point on the concentration scale where inhibition reaches its midpoint. A high value points to weaker potency. As a reminder, the inhibition is the drop in the measured response relative to a control, in per cent. A high value points to a strong effect.
